The values that follow come from patent publication US11667649B2, “Heteroaromatic macrocyclic ether chemotherapeutic agents” (Nuvalent, Inc., priority 2020, dated 2023).

This experiment has as its system TPM3-NTRK1-wt IC50 / primary target (e.g. CD74-ROS1-wt) IC50, Ba/F3 cells. The experiment is described as follows: Cell assay TRKA selectivity (TRKA potency divided by primary target potency). In kind it is cell-based. Particulars: for TPM3-NTRK1-wt/CD74-ROS1-G2032R: TRKA selectivity ratio: TPM3-NTRK1-wt IC50 / CD74-ROS1-G2032R IC50, Ba/F3 cells; for TPM3-NTRK1-wt/CD74-ROS1-wt: TRKA selectivity ratio: TPM3-NTRK1-wt IC50 / CD74-ROS1-wt IC50, Ba/F3 cells; for TPM3-NTRK1-wt/EML4-ALK-L1196M-G1202R: TRKA selectivity ratio: TPM3-NTRK1-wt IC50 / EML4-ALK-L1196M-G1202R IC50, Ba/F3 cells; for TPM3-NTRK1-wt/EML4-ALK-wt: TRKA selectivity ratio: TPM3-NTRK1-wt IC50 / EML4-ALK-wt IC50, Ba/F3 cells. In a few lines: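 IL-3-independent Ba/F3 lines stably expressing TPM3-TRKA or the primary fusion (e.g. CD74-ROS1 wt) were exposed to 3-fold compound dilutions for 72 h. Viability was read by CellTiter-Glo luminescence, with IC50 from four-parameter logistic fit. Selectivity is TPM3-NTRK1 IC50 divided by primary-target IC50, binned A (>30-fold) to D (<1).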

Turning to `CCn1ncc2c1-c1cnc(N)c(c1)O[C@H](C)c1cc(F)ccc1-c1nn(C(F)F)cc1C2` [Example 86, (19R)-10-(difluoromethyl)-3-ethyl-16-fluoro-19-methyl-20-oxa-3,4,10,11,23-pentaazapentacyclo[19.3.1.0^2,^6.0^8,^12.0^13,^18]pentacosa-1(24),2(6),4,8,11,13,15,17,21(25),22-decaen-22-amine], the TPM3-NTRK1-wt/CD74-ROS1-G2032R entry is listed as “B (bin B for high selectivity, ratio>10-fold)”; the TPM3-NTRK1-wt/CD74-ROS1-wt entry is “A (bin A for very high selectivity, ratio>30-fold)”; the TPM3-NTRK1-wt/EML4-ALK-L1196M-G1202R entry is “D (bin D for low selectivity, ratio<1)”; the TPM3-NTRK1-wt/EML4-ALK-wt result was “C (bin C for moderate selectivity, ratio≥1)”.
Turning to `CCn1ncc2c1-c1cnc(N)c(c1)O[C@H](C)c1cc(F)ccc1-c1nn(C)c(C)c1C2` [Example 87, (19R)-3-ethyl-16-fluoro-9,10,19-trimethyl-20-oxa-3,4,10,11,23-pentaazapentacyclo[19.3.1.0^2,^6.0^8,^12.0^13,^18]pentacosa-1(24),2(6),4,8,11,13,15,17,21(25),22-decaen-22-amine], the TPM3-NTRK1-wt/CD74-ROS1-G2032R result is listed as “A (bin A for very high selectivity, ratio>30-fold)”; the TPM3-NTRK1-wt/CD74-ROS1-wt entry is “A (bin A for very high selectivity, ratio>30-fold)”; the TPM3-NTRK1-wt/EML4-ALK-L1196M-G1202R result was “C (bin C for moderate selectivity, ratio≥1)”; the TPM3-NTRK1-wt/EML4-ALK-wt result is on record as “A (bin A for very high selectivity, ratio>30-fold)”.
With `CCc1snc2c1-c1cnc(N)c(c1)O[C@H](C)c1cc(F)ccc1-c1nn(C)cc1C2` [Example 88, (19R)-3-ethyl-16-fluoro-10,19-dimethyl-20-oxa-4-thia-5,10,11,23-tetraazapentacyclo[19.3.1.0^2,^6.0^8,^12.0^13,^18]pentacosa-1(24),2,5,8,11,13,15,17,21(25),22-decaen-22-amine], the TPM3-NTRK1-wt/CD74-ROS1-G2032R entry is listed as “B (bin B for high selectivity, ratio>10-fold)”; the TPM3-NTRK1-wt/CD74-ROS1-wt result is “A (bin A for very high selectivity, ratio>30-fold)”; the TPM3-NTRK1-wt/EML4-ALK-L1196M-G1202R result is recorded as “C (bin C for moderate selectivity, ratio≥1)”; the TPM3-NTRK1-wt/EML4-ALK-wt entry is given as “A (bin A for very high selectivity, ratio>30-fold)”.
In the case of `CCn1ncc2c1-c1cnc(N)c(c1)OCc1cc(F)ccc1-c1nc(C)sc1C2` [Example 89, 3-ethyl-16-fluoro-10-methyl-20-oxa-9-thia-3,4,11,23-tetraazapentacyclo[19.3.1.0^2,^6.0^8,^12.0^13,^18]pentacosa-1(24),2(6),4,8(12),10,13,15,17,21(25),22-decaen-22-amine], the TPM3-NTRK1-wt/CD74-ROS1-G2032R result is on record as “A (bin A for very high selectivity, ratio>30-fold)”; the TPM3-NTRK1-wt/CD74-ROS1-wt result is listed as “A (bin A for very high selectivity, ratio>30-fold)”; the TPM3-NTRK1-wt/EML4-ALK-L1196M-G1202R result is given as “B (bin B for high selectivity, ratio>10-fold)”; the TPM3-NTRK1-wt/EML4-ALK-wt result is listed as “A (bin A for very high selectivity, ratio>30-fold)”.
`CCc1noc2c1-c1cnc(N)c(c1)O[C@H](C)c1cc(F)cc(F)c1-c1nn(C)cc1C2` [Example 90, (19R)-3-ethyl-14,16-difluoro-10,19-dimethyl-5,20-dioxa-4,10,11,23-tetraazapentacyclo[19.3.1.0^2,^6.0^8,^12.0^13,^18]pentacosa-1(24),2(6),3,8,11,13,15,17,21(25),22-decaen-22-amine]: the TPM3-NTRK1-wt/CD74-ROS1-G2032R result is on record as “A (bin A for very high selectivity, ratio>30-fold)”; the TPM3-NTRK1-wt/CD74-ROS1-wt entry is “A (bin A for very high selectivity, ratio>30-fold)”; the TPM3-NTRK1-wt/EML4-ALK-L1196M-G1202R result was “C (bin C for moderate selectivity, ratio≥1)”; the TPM3-NTRK1-wt/EML4-ALK-wt entry was “A (bin A for very high selectivity, ratio>30-fold)”.
With `C[C@H]1Oc2cc(cnc2N)-c2c(cnn2CC2CC2)Cc2cc(C(F)(F)F)nn2-c2ccc(F)cc21` [Example 91, (19R)-3-(cyclopropylmethyl)-16-fluoro-19-methyl-10-(trifluoromethyl)-20-oxa-3,4,11,12,23-pentaazapentacyclo[19.3.1.0^2,^6.0^8,^12.0^13,^18]pentacosa-1(24),2(6),4,8,10,13,15,17,21(25),22-decaen-22-amine], the TPM3-NTRK1-wt/CD74-ROS1-G2032R result is given as “A (bin A for very high selectivity, ratio>30-fold)”; the TPM3-NTRK1-wt/CD74-ROS1-wt result is given as “A (bin A for very high selectivity, ratio>30-fold)”; the TPM3-NTRK1-wt/EML4-ALK-L1196M-G1202R result was “A (bin A for very high selectivity, ratio>30-fold)”; the TPM3-NTRK1-wt/EML4-ALK-wt entry is “A (bin A for very high selectivity, ratio>30-fold)”.
`CCn1ncc2c1-c1cnc(N)c(c1)OCc1cc(F)ccc1-n1nc(C(F)(F)F)cc1C2` [Example 92, 3-ethyl-16-fluoro-10-(trifluoromethyl)-20-oxa-3,4,11,12,23-pentaazapentacyclo[19.3.1.0^2,^6.0^8,^12.0^13,^18]pentacosa-1(24),2(6),4,8,10,13,15,17,21(25),22-decaen-22-amine]: the TPM3-NTRK1-wt/CD74-ROS1-G2032R result is “A (bin A for very high selectivity, ratio>30-fold)”; the TPM3-NTRK1-wt/CD74-ROS1-wt entry is “A (bin A for very high selectivity, ratio>30-fold)”; the TPM3-NTRK1-wt/EML4-ALK-L1196M-G1202R result is reported as “C (bin C for moderate selectivity, ratio≥1)”; the TPM3-NTRK1-wt/EML4-ALK-wt result was “C (bin C for moderate selectivity, ratio≥1)”.
Consider `CCn1nnc2c1-c1cnc(N)c(c1)O[C@H](C)c1cc(F)ccc1-c1sncc1C2` [Example 93, (19R)-3-ethyl-16-fluoro-19-methyl-20-oxa-11-thia-3,4,5,10,23-pentaazapentacyclo[19.3.1.0^2,^6.0^8,^12.0^13,^18]pentacosa-1(24),2(6),4,8(12),9,13,15,17,21(25),22-decaen-22-amine], for which the TPM3-NTRK1-wt/CD74-ROS1-G2032R entry is “A (bin A for very high selectivity, ratio>30-fold)”; the TPM3-NTRK1-wt/CD74-ROS1-wt result is “A (bin A for very high selectivity, ratio>30-fold)”; the TPM3-NTRK1-wt/EML4-ALK-L1196M-G1202R entry was “C (bin C for moderate selectivity, ratio≥1)”; the TPM3-NTRK1-wt/EML4-ALK-wt result is given as “B (bin B for high selectivity, ratio>10-fold)”.
In the case of `C[C@H]1Oc2cc(cnc2N)-c2c(C#N)nn(C)c2Cc2scnc2-c2ccc(F)cc21` [Example 94, (19R)-22-amino-16-fluoro-5,19-dimethyl-20-oxa-9-thia-4,5,11,23-tetraazapentacyclo[19.3.1.0^2,^6.0^8,^12.0^13,^18]pentacosa-1(24),2(6),3,8(12),10,13,15,17,21(25),22-decaene-3-carbonitrile], the TPM3-NTRK1-wt/CD74-ROS1-G2032R result is “A (bin A for very high selectivity, ratio>30-fold)”; the TPM3-NTRK1-wt/CD74-ROS1-wt entry is given as “A (bin A for very high selectivity, ratio>30-fold)”; the TPM3-NTRK1-wt/EML4-ALK-L1196M-G1202R result is “A (bin A for very high selectivity, ratio>30-fold)”; the TPM3-NTRK1-wt/EML4-ALK-wt result is recorded as “A (bin A for very high selectivity, ratio>30-fold)”.
In the case of `CCn1nnc2c1-c1cnc(N)c(c1)O[C@H](C)c1cc(F)ccc1-c1nscc1C2` [Example 95, (19R)-3-ethyl-16-fluoro-19-methyl-20-oxa-10-thia-3,4,5,11,23-pentaazapentacyclo[19.3.1.0^2,^6.0^8,^12.0^13,^18]pentacosa-1(24),2(6),4,8,11,13,15,17,21(25),22-decaen-22-amine], the TPM3-NTRK1-wt/CD74-ROS1-G2032R result is “A (bin A for very high selectivity, ratio>30-fold)”; the TPM3-NTRK1-wt/CD74-ROS1-wt entry is reported as “A (bin A for very high selectivity, ratio>30-fold)”; the TPM3-NTRK1-wt/EML4-ALK-L1196M-G1202R result was “C (bin C for moderate selectivity, ratio≥1)”; the TPM3-NTRK1-wt/EML4-ALK-wt entry was “A (bin A for very high selectivity, ratio>30-fold)”.
